Reference: article PMC3042382, “The evolution of farnesoid X, vitamin D, and pregnane X receptors: insights from the green-spotted pufferfish (Tetraodon nigriviridis) and other non-mammalian species” (BMC Biochemistry, 2011)
Where two headings read alike, the source gives them in different places.

Experiments:
[1] = biological target: T1, tnPXR (Tetraodon PXR, GAL4/LBD) (Tetraodon nigroviridis, UniProt H3D8U6); assay: cell-based; set-up: GAL4/LBD chimera luciferase transactivation, normalised to beta-galactosidase, efficacy relative to maximal activator; details: HepG2-NTCP; relative to 50 uM 5α-androstan-3α-ol; read-out: Efficacy
T1 construct: cloned from liver RNA
T1 sequence (H3D8U6 123-404): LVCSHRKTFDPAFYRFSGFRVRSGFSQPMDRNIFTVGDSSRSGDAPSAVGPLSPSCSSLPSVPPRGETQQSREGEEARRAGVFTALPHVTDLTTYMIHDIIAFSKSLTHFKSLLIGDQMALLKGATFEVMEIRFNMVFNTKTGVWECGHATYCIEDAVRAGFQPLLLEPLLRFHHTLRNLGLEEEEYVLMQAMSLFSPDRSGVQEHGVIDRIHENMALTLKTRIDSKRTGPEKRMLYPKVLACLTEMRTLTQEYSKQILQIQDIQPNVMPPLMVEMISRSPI
Description: (§1) The creation of a HepG2 (human liver) cell line stably expressing the human Na^+-taurocholate cotransporter (NTCP; SLC10A1) has been previously reported. HepG2-NTCP cells were grown in modified Eagle's medium-α containing 10% fetal bovine serum and 1% penicillin/streptomycin. The cells were grown at 37°C in 5% CO2. The chicken LMH hepatoma cell line (ATCC, Manassus, VA, USA) was grown in Waymouth's MB 752/1 medium (ATCC) with 10 fetal bovine serum. The Xenopus laevis A6 kidney cell line (ATCC) was grown in 75% NCTC 109 medium, 15% distilled water, and 10% fetal bovine serum at 26°C in 2% CO2. Except as noted above, all media and media supplements for the HepG2 and A6 cell lines were obtained from Invitrogen (Carlsbad, CA, USA). Co-transfections and transactivations assays were performed as previously described. The maximal activators and their concentrations were as follows: chVDR, xlVDR, and tnVDR - 200 nM 1α,25-(OH)2-vitamin D3; tnFXR - 5 μM GW4064; tnPXR - 50 μM 5α-androstan-3α-ol. All comparisons to maximal activators were done within the same microplate. Luciferase data were normalized to the internal β-galactosidase control and represent means ± SD of the assays. The LBD of chicken VDR was cloned from RNA extracted from the LMH cell line. The LBD of Xenopus laevis VDR was cloned from RNA extracted from the A6 cell line. The LBDs of tnFXR, tnVDR, and tnPXR were cloned from total RNA extracted from Tetraodon liver using sequence information from the draft Tetraodon nigriviridis genome. The LBDs of chVDR (amino acid residues 113-451), xlVDR (amino acid residues 91-422), tnFXR (amino acid residues 180-463), tnVDR (amino acid residues 91-426), and tnPXR (amino acid residues 202-483) were inserted into the pM2-GAL4 vector to create GAL4/LBD chimeras.

[2] = biological target: T1, tnPXR (Tetraodon PXR, GAL4/LBD); set-up: species or system HepG2-NTCP; GAL4/LBD chimera luciferase transactivation, normalised to beta-galactosidase, efficacy relative to maximal activator; details: agonist
Description: as §1

[3] = biological target: T2, tnPXR (Tetraodon PXR, GAL4/LBD) (Tetraodon nigroviridis, UniProt H3D8U6); assay: GAL4/LBD luciferase transactivation; format: cell-based; details: agonist, HepG2-NTCP cells
T2 construct: cloned from liver RNA

[4] = biological target: T3, chVDR (chicken VDR, GAL4/LBD) (Gallus gallus, UniProt O42392); assay: cell-based
T3 sequence (O42392 113-451): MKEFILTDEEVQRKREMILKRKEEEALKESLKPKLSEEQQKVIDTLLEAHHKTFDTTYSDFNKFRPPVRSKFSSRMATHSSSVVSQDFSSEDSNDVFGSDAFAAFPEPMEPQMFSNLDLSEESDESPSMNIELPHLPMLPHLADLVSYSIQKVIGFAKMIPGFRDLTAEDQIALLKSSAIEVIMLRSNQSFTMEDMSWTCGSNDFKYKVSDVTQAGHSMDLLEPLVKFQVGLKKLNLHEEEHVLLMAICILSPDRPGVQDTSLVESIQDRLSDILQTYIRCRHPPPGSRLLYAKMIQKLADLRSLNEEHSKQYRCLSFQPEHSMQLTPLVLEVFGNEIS

[5] = biological target: T4, tnVDR (Tetraodon VDR alpha, GAL4/LBD) (Tetraodon nigroviridis, UniProt A0A0A1CGS5); assay: cell-based; set-up: GAL4/LBD chimera luciferase transactivation, normalised to beta-galactosidase, efficacy relative to maximal activator; details: HepG2-NTCP; relative to 200 nM 1α,25-(OH)2-vitamin D3; read-out: Efficacy
T4 construct: gene VDRa; cloned from liver RNA
T4 sequence (A0A0A1CGS5 91-420): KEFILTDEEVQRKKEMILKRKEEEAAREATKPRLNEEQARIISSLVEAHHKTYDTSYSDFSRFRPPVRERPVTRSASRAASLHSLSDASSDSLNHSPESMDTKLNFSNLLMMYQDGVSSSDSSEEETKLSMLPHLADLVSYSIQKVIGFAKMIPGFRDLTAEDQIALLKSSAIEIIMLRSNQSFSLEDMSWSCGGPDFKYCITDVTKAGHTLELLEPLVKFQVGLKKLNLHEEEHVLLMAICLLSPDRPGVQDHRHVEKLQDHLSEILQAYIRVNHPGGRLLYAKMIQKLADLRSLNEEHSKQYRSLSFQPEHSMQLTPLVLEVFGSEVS
Description: as §1

[6] = test system: T5, tnFXR (Tetraodon FXR, GAL4/LBD); assay: GAL4/LBD luciferase transactivation; format: cell-based, Tetraodon nigroviridis; details: agonist, HepG2-NTCP cells
T5 construct: gene NR1H4; cloned from liver RNA

[7] = reference maximal activator ([…])

Q: For C[C@H](CCC(=O)O)[C@H]1CC[C@H]2[C@@H]3CC[C@@H]4C[C@H](O)CC[C@]4(C)[C@H]3C[C@H](O)[C@]12C [Deoxycholic acid], which Emax [1] is on record?
A: The Emax was 33%.

Q: And the EC50 [2]?
A: The EC50 was 9 µM.

Q: With CC(=O)[C@H]1CC[C@H]2[C@@H]3CC[C@@H]4CC(=O)CC[C@]4(C)[C@H]3CC[C@]12C [5β-pregnane-3,20-dione] as the compound, how does the EC50 [3] read?
A: Its EC50 is 4 µM.

Q: What does the source list for C[C@]12CC[C@@H](O)C[C@@H]1CC[C@@H]1[C@@H]2CC[C@]2(C)C=CC[C@@H]12 [5α-Androst-16-en-3α-ol]?
A: Emax [1]: 58%; EC50 [2]: 7.4 µM

Q: Which results are given for C[C@H](CCC(=O)O)[C@H]1CC[C@H]2[C@@H]3CC[C@@H]4C[C@H](O)CC[C@]4(C)[C@H]3CC[C@]12C [LCA, 3α-hydroxy-5β-cholan-24-oic acid]?
A: EC50 [4]: 50.3 ± 7.4 µM; Emax [1]: 10%; Emax [5]: 12%; EC50 [6]: 20.8 ± 1 µM; EC50 [2]: 81 µM

Q: Which EC50 [6, 7] does the source give for CC(C)c1onc(-c2c(Cl)cccc2Cl)c1COc1ccc(/C=C/c2cccc(C(=O)O)c2)c(Cl)c1 [GW4064] here?
A: Its EC50 is 2.8 ± 0.8 µM.

Q: CC(=O)[C@H]1CC[C@H]2[C@@H]3CCC4=CC(=O)CC[C@]4(C)[C@H]3CC[C@]12C [Progesterone] was tested. Which Emax [1] did it give?
A: The Emax was 33%.

Q: What about the EC50 [2] of the same compound?
A: The EC50 was 8.9 µM.

Q: With C[C@H](CCC(=O)O)[C@H]1CC[C@H]2[C@@H]3[C@H](O)C[C@@H]4C[C@H](O)CC[C@]4(C)[C@H]3CC[C@]12C [CDCA, 3α,7α-dihydroxy-5β-cholan-24-oic acid] as the compound, how does the Emax [1] read?
A: The Emax was 38%.

Q: And the EC50 [2]?
A: Its EC50 is 15.6 µM.

Q: Which results are given for CC(=O)[C@H]1CC[C@H]2[C@@H]3CC=C4C[C@@H](O)CC[C@]4(C)[C@H]3CC[C@]12C [Pregnenolone]?
A: Emax [1]: 34%; EC50 [2]: 3.3 µM

Q: C[C@]12CC[C@@H]3c4ccc(O)cc4CC[C@H]3[C@@H]1CC[C@@H]2O [Estradiol] was tested. Which Emax [1] did it give?
A: Its Emax is 47%.

Q: And the EC50 [2]?
A: Its EC50 is 9.6 µM.

Q: For C[C@H](CCC(=O)O)[C@H]1CC[C@H]2[C@@H]3CC[C@H]4CCCC[C@]4(C)[C@H]3CC[C@]12C [5α-Cholan-24-oic acid], which Emax [5] is on record?
A: Its Emax is 3%.

Q: How did the Emax [1] turn out when O=S(=O)(c1ccccc1)N(CC(F)(F)F)c1ccc(C(O)(C(F)(F)F)C(F)(F)F)cc1 [T-0901317] was run?
A: The Emax was 17%.

Q: And the EC50 [2]?
A: The EC50 was 7.7 µM.

Q: For C[C@]12CCC(=O)C=C1CC[C@@H]1[C@@H]2C(=O)C[C@@]2(C)[C@H]1CC[C@]2(O)C(=O)CO [Cortisone], which Emax [1] is on record?
A: Its Emax is 19%.

Q: What about the EC50 [2] of the same compound?
A: The EC50 was 12.2 µM.

Q: For C[C@H](CCC(=O)NCCS(=O)(=O)O)[C@H]1CC[C@H]2[C@@H]3CC[C@@H]4C[C@H](O)CC[C@]4(C)[C@H]3CC[C@]12C [Tauro-LCA], which Emax [1] is on record?
A: Its Emax is 29%.

Q: And the EC50 [2]?
A: Its EC50 is 19.1 µM.

Q: For C[C@H](CCCC(CO)COS(=O)(=O)O)[C@H]1CC[C@H]2[C@@H]3[C@H](O)C[C@H]4C[C@H](O)CC[C@]4(C)[C@H]3C[C@H](O)[C@]12C (stereo partly drawn) [5α-Cyprinol-27-sulfate], which EC50 [2] is on record?
A: Its EC50 is 8.2 µM.

Q: How did the Emax [5] turn out when C=C1CC[C@H](O)C/C1=C/C=C1\CCC[C@]2(C)[C@@H]([C@H](C)CCCC(C)(C)O)CC[C@@H]12 [25-Hydroxyvitamin D3] was run?
A: Its Emax is 110%.

Q: For C[C@]12CC[C@H](OS(=O)(=O)O)CC1=CC[C@@H]1[C@@H]2CC[C@]2(C)C(=O)CC[C@@H]12 [DHEA_sulfate], which Emax [1] is on record?
A: Its Emax is 70%.

Q: What about the EC50 [2] of the same compound?
A: Its EC50 is 8.5 µM.

Q: For C[C@H](CCC(=O)NCCS(=O)(=O)O)[C@H]1CC[C@H]2[C@@H]3[C@H](O)C[C@@H]4C[C@H](O)CC[C@]4(C)[C@H]3CC[C@]12C [TCDCA, taurochenodeoxycholic acid], which EC50 [3] is on record?
A: The EC50 was 4.8 ± 0.3 µM.

Q: And the Emax [1]?
A: The Emax was 59%.

Q: For CCCCOC(=O)c1ccc(N)cc1 [n-butyl 4-amino benzoate], which EC50 [3] is on record?
A: Its EC50 is 25.6 ± 1.4 µM.

Q: And the Emax [1]?
A: The Emax was 88%.

Q: With C[C@@]12CCC[C@H]1[C@@H]1CC[C@H]3C[C@H](O)CC[C@]3(C)[C@H]1CC2 [5α-androstan-3α-ol] as the compound, how does the EC50 [3, 7] read?
A: Its EC50 is 6.1 ± 0.7 µM.

Q: Which Emax [5] does the source give for C[C@H](CCC(=O)O)[C@H]1CC[C@H]2[C@@H]3CC[C@@H]4C[C@@H](O)CC[C@]4(C)[C@H]3CC[C@]12C [Iso-LCA] here?
A: Its Emax is 4%.

Q: How did the Emax [1] turn out when CC(=O)[C@H]1CC[C@H]2[C@@H]3CC[C@@H]4CC(=O)CC[C@]4(C)[C@H]3CC[C@]12C [5β-Pregnanedione] was run?
A: The Emax was 73%.

Q: CC(=O)O[C@@H]1CC[C@@]2(C)[C@H](CC[C@@H]3[C@@H]2CC[C@]2(C)[C@@H]([C@H](C)CCC(=O)O)CC[C@@H]32)C1 [LCA acetate] was tested. Which Emax [5] did it give?
A: Its Emax is 61%.

Q: C[C@H](CCC(=O)O)[C@H]1CC[C@H]2[C@@H]3CC[C@@H]4CC(=O)CC[C@]4(C)[C@H]3CC[C@]12C [3_Keto_LCA] was tested. Which Emax [1] did it give?
A: Its Emax is 65%.

Q: What about the Emax [5] of the same compound?
A: The Emax was 17%.

Q: What about the EC50 [2] of the same compound?
A: Its EC50 is 42.3 µM.
